This passage reports IC50 and EC50 results from patent publication US20120225062A1 (priority 2011, published 2012).

One test concerns the target Pim 2 (Homo sapiens, UniProt Q9P1W9). Kind of test: Pim 2 AlphaScreen assay (high ATP). (In general: Bead proximity is the source of the signal in Alpha formats.)
Another test has as its target Pim 1 (Homo sapiens, UniProt P11309). Kind of test: Pim 1 AlphaScreen assay (high ATP).
Test [1] deals with KMS11 (human myeloma cell line). Kind of test: Cell Proliferation Assay (CellTiter-Glo, 3 days). The test is classed as cell-based. To be noted: KMS-11, 72 h, KMS11-luc cells. In short, it runs like this:
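KMS11 myeloma cells, 2000 per well in IMDM with 10% FBS, exposed to compound for 3 days at 37° C. Viability read by CellTiter-Glo luminescence; EC50 derived.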
On the technique in general: Cellular ATP, detected with luciferase, serves as a proxy for viable cell number.

A further test deals with Pim 3 (Homo sapiens, UniProt Q86V86). Kind of test: Pim 3 AlphaScreen assay (high ATP).

Pim 1, sequence (P11309 whole entry): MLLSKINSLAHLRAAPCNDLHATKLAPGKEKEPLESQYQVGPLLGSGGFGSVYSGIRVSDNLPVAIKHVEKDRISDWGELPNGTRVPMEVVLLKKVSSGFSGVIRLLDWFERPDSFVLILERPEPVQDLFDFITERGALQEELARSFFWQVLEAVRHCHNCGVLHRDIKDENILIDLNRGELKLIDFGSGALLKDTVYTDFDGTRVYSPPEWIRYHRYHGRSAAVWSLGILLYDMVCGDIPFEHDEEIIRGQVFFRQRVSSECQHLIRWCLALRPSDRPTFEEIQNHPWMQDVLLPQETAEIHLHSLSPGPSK
Pim 2, sequence (Q9P1W9 whole entry): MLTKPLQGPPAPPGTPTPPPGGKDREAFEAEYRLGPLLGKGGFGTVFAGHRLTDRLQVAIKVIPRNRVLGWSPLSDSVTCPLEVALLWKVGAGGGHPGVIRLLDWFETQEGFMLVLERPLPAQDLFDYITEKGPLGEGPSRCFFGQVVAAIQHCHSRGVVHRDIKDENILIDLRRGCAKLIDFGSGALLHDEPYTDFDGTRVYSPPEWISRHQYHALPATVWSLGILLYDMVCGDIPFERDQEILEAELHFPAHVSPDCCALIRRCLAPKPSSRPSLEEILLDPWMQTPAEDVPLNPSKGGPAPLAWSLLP
Description for Pim 1: The activity of Pim 1, Pim 2, & Pim 3 is measured using a homogeneous bead based system quantifying the amount of phosphorylated peptide substrate resulting from kinase-catalyzed phosphoryl transfer to a peptide substrate. Compounds to be tested are dissolved in 100% DMSO and directly distributed to a white 384-well plate at 0.25 μl per well. […] This is followed by the addition of 5 μl/well of Pim 1, Pim 2 or Pim 3 kinase in assay buffer (concentrations described below). Final assay concentrations (described below) are in 2.5% DMSO. The reactions are performed for ˜2 hours, then stopped by the addition of 10 μl of 0.75 μg/ml anti-phospho Ser/Thr antibody (Cell Signaling), 10 μg/ml Protein A AlphaScreen beads (Perkin Elmer), and 10 μg/ml streptavidin coated AlphaScreen beads in stop/detection buffer (50 mM EDTA, 95 mM Tris, pH=7.5, 0.01% Tween-20). The stopped reactions are incubated overnight in the dark. The phosphorylated peptide is detected via an oxygen anion initiated chemiluminescence/fluorescence cascade using the Envision plate reader (Perkin Elmer).

Usually IC50 stands for the concentration needed to halve the response being measured. Read a low IC50 as inhibition by little substance. In general, EC50 refers to the concentration at which the effect is half-maximal. A higher EC50 goes with weaker potency. Regarding `COCCOc1cc(F)c(-c2cccc(C(=O)Nc3cnccc3[C@@H]3C[C@H](C)C[C@H](N)C3)n2)c(F)c1` [Example 188, N-(4-((1R,3S,5S)-3-amino-5-methylcyclohexyl)pyridin-3-yl)-6-(2,6-difluoro-4-(2-methoxyethoxy)phenyl)picolinamide], the IC50 on Pim 2 was 3.96 nM; against Pim 1, 0.07 nM; against Pim 3, 1.96 nM. Moreover, the EC50 in test [1] worked out at 478 nM.
For the compound `C[C@@H]1C[C@H](N)C[C@H](c2ccncc2NC(=O)c2ccc(F)c(-c3c(F)cc([C@H](O)CO)cc3F)n2)C1` [Example 231, N-(4-((1R,3S,5S)-3-amino-5-methylcyclohexyl)pyridin-3-yl)-6-(4-((S)-1,2-dihydroxyethyl)-2,6-difluorophenyl)-5-fluoropicolinamide], the values for the IC50 against Pim 2, against Pim 1 and on Pim 3 were 2.6 nM, 0.04 nM and 1.53 nM, respectively. In test [1], this compound showed an EC50 of 46 nM.
`COCc1cc(F)c(-c2nc(C(=O)Nc3cnccc3[C@H]3C[C@@H](N)[C@H](O)[C@@H](C)C3)ccc2F)c(F)c1` [Example 40, N-(4-((1R,3R,4R,5S)-3-amino-4-hydroxy-5-methylcyclohexyl)pyridin-3-yl)-6-(2,6-difluoro-4-(methoxymethyl)phenyl)-5-fluoropicolinamide]: the IC50 at Pim 2 worked out at 3.98 nM; on Pim 1 it was 0.08 nM; on Pim 3, 2.63 nM. The compound also showed an EC50 in test [1] of 68 nM.
Take `C[C@H]1C[C@@H](c2ccncc2NC(=O)c2ccc(F)c(-c3c(F)cc(OC4CCOCC4)cc3F)n2)C[C@@H](N)[C@@H]1O` [Example 59]: the IC50 at Pim 2 was 2.77 nM; on Pim 1, 0.02 nM; against Pim 3, 0.45 nM. In test [1], this compound registered an EC50 of 28 nM.
The corresponding values for `C[C@H]1C[C@@H](c2ccncc2NC(=O)c2cccc(-c3c(F)cc(N4CCOCC4)cc3F)n2)C[C@@H](N)[C@@H]1O` [Example 191, N-(4-((1R,3R,4R,5S)-3-amino-4-hydroxy-5-methylcyclohexyl)pyridin-3-yl)-6-(2,6-difluoro-4-morpholinophenyl)picolinamide] are 2.31 nM, 0.02 nM, 0.52 nM and 263 nM.
The corresponding values for `C[C@H]1CN(c2ccncc2NC(=O)c2ccc(F)c(-c3c(F)cc(O[C@H]4CCCOC4)cc3F)n2)C[C@@H](N)[C@@H]1O` [Example 106, N-(4-((3R,4R,5S)-3-amino-4-hydroxy-5-methylpiperidin-1-yl)pyridin-3-yl)-6-(2,6-difluoro-4-((S)-tetrahydro-2H-pyran-3-yloxy)phenyl)-5-fluoropicolinamide] are 0.52 nM, 0.01 nM, 0.13 nM and 154 nM.
Take `C[C@@H]1C[C@H](N)C[C@H](c2ccncc2NC(=O)c2ccc(F)c(-c3c(F)cc(C4(O)CC4)cc3F)n2)C1` [Example 44, N-(4-((1R,3S,5S)-3-amino-5-methylcyclohexyl)pyridin-3-yl)-6-(2,6-difluoro-4-(1-hydroxycyclopropyl)phenyl)-5-fluoropicolinamide]: the values for the IC50 against Pim 2, against Pim 1 and on Pim 3 were 2.03 nM, 0.01 nM and 0.77 nM, respectively. In addition, the EC50 in test [1] is 18 nM.
The corresponding values for `C[C@H]1CN(c2ccncc2NC(=O)c2ccc(F)c(-c3c(F)cc(C4CCS(=O)(=O)CC4)cc3F)n2)C[C@@H](N)[C@@H]1O` [Example 204, N-(4-((3R,4R,5S)-3-amino-4-hydroxy-5-methylpiperidin-1-yl)pyridin-3-yl)-6-(4-(1,1-dioxidotetrahydro-2H-thiopyran-4-yl)-2,6-difluorophenyl)-5-fluoropicolinamide] are 0.38 nM, 0.01 nM, 0.14 nM and 115 nM.
Consider `C[C@H]1C[C@@H](c2ccncc2NC(=O)c2ccc(F)c(-c3c(F)cc(N4CCOCC4)cc3F)n2)C[C@@H](N)[C@@H]1O` [Example 169, N-(4-((1R,3R,4R,5S)-3-amino-4-hydroxy-5-methylcyclohexyl)pyridin-3-yl)-6-(2,6-difluoro-4-morpholinophenyl)-5-fluoropicolinamide], for which the figures for the IC50 against Pim 2, at Pim 1 and at Pim 3 were 1.16 nM, 0.01 nM and 0.38 nM, respectively. The compound further had an EC50 in test [1] of 34 nM.
For the compound `CCOc1ccc(F)c(-c2nc(C(=O)Nc3cnccc3N3C[C@@H](N)[C@H](O)[C@@H](C)C3)ccc2F)c1F` [Example 216, N-(4-((3R,4R,5S)-3-amino-4-hydroxy-5-methylpiperidin-1-yl)pyridin-3-yl)-6-(3-ethoxy-2,6-difluorophenyl)-5-fluoropicolinamide], the IC50 came to 2.02 nM on Pim 2, 0.02 nM against Pim 1 and 0.39 nM on Pim 3. This compound also yielded an EC50 in test [1] of 28 nM.
Turning to `C[C@H]1CN(c2ccncc2NC(=O)c2ccc(F)c(-c3c(F)cc([S@@+](C)[O-])cc3F)n2)C[C@@H](N)[C@@H]1O` [Example 26, N-(4-((3R,4R,5S)-3-amino-4-hydroxy-5-methylpiperidin-1-yl)pyridin-3-yl)-6-(2,6-difluoro-4-((R)-methylsulfinyl)phenyl)-5-fluoropicolinamide], the IC50 against Pim 2 came to 1.88 nM; on Pim 1, 0.05 nM; on Pim 3 it was 2.21 nM. In test [1], this compound registered an EC50 of 42 nM.
For `COc1ccc(F)c(-c2nc(C(=O)Nc3cnccc3N3C[C@@H](N)[C@H](O)[C@@H](C)C3)ccc2F)c1F` [Example 214, N-(4-((3R,4R,5S)-3-amino-4-hydroxy-5-methylpiperidin-1-yl)pyridin-3-yl)-6-(2,6-difluoro-3-methoxyphenyl)-5-fluoropicolinamide], in that order: 1.07 nM, 0.03 nM, 0.37 nM and 32 nM.
For `CCOCc1cc(F)c(-c2nc(C(=O)Nc3cnccc3[C@@H]3C[C@H](C)C[C@H](N)C3)ccc2F)c(F)c1` [Example 81, N-(4-((1R,3S,5S)-3-amino-5-methylcyclohexyl)pyridin-3-yl)-6-(4-(ethoxymethyl)-2,6-difluorophenyl)-5-fluoropicolinamide], in that order: 0.42 nM, 0.01 nM, 0.21 nM and 14 nM.
For `CCOCc1cc(F)c(-c2nc(C(=O)Nc3cnccc3[C@H]3C[C@@H](N)[C@H](O)[C@@H](C)C3)ccc2F)c(F)c1` [Example 83, N-(4-((1R,3R,4R,5S)-3-amino-4-hydroxy-5-methylcyclohexyl)pyridin-3-yl)-6-(4-(ethoxymethyl)-2,6-difluorophenyl)-5-fluoropicolinamide], in that order: 2.43 nM, 0.04 nM, 1.33 nM and 166 nM.
As to `CC(C)OCc1cc(F)c(-c2nc(C(=O)Nc3cnccc3[C@H]3C[C@@H](N)[C@H](O)[C@@H](C)C3)ccc2F)c(F)c1` [Example 148, N-(4-((1R,3R,4R,5S)-3-amino-4-hydroxy-5-methylcyclohexyl)pyridin-3-yl)-6-(2,6-difluoro-4-(isopropoxymethyl)phenyl)-5-fluoropicolinamide], the IC50 against Pim 2 was found to be 3.28 nM; on Pim 1 it was 0.05 nM; against Pim 3, 1.47 nM. In addition, in test [1], a half-maximal effect (EC50) was put at 185 nM.
The corresponding values for `C[C@H]1C[C@@H](c2ccncc2NC(=O)c2ccc(F)c(-c3c(F)cc(C(C)(C)C#N)cc3F)n2)C[C@@H](N)[C@@H]1O` [Example 165, N-(4-((1R,3R,4R,5S)-3-amino-4-hydroxy-5-methylcyclohexyl)pyridin-3-yl)-6-(4-(2-cyanopropan-2-yl)-2,6-difluorophenyl)-5-fluoropicolinamide] are 1.87 nM, 0.04 nM, 2.3 nM and 78 nM.
The corresponding values for `C[C@@H]1C[C@H](N)C[C@H](c2ccncc2NC(=O)c2ccc(F)c(-c3c(F)cc(C4(F)COC4)cc3F)n2)C1` [Example 135, N-(4-((1R,3S,5S)-3-amino-5-methylcyclohexyl)pyridin-3-yl)-6-(2,6-difluoro-4-(3-fluorooxetan-3-yl)phenyl)-5-fluoropicolinamide] are 4.54 nM, 0.05 nM, 4.45 nM and 583 nM.
Take `C[C@@H]1C[C@H](N)C[C@H](c2ccncc2NC(=O)c2ccc(F)c(-c3c(F)cc(OCC4(C#N)CCOCC4)cc3F)n2)C1` [Example 185, N-(4-((1R,3S,5S)-3-amino-5-methylcyclohexyl)pyridin-3-yl)-6-(4-((4-cyanotetrahydro-2H-pyran-4-yl)methoxy)-2,6-difluorophenyl)-5-fluoropicolinamide]: the IC50 was 4.04 nM at Pim 2, 0.02 nM on Pim 1 and 2.44 nM at Pim 3. Also, in test [1], the EC50 is 632 nM.
The corresponding values for `C[C@H]1CN(c2ccncc2NC(=O)c2ccc(F)c(-c3c(F)cc(C4(O)COC4)cc3F)n2)C[C@@H](N)[C@@H]1O` [Example 89, N-(4-((3R,4R,5S)-3-amino-4-hydroxy-5-methylpiperidin-1-yl)pyridin-3-yl)-6-(2,6-difluoro-4-(3-hydroxyoxetan-3-yl)phenyl)-5-fluoropicolinamide] are 0.67 nM, 0.01 nM, 0.26 nM and 21 nM.
For `COCCOc1ccc(F)c(-c2nc(C(=O)Nc3cnccc3[C@H]3C[C@@H](N)[C@H](O)[C@@H](C)C3)ccc2F)c1F` [Example 18, N-(4-((1R,3R,4R,5S)-3-amino-4-hydroxy-5-methylcyclohexyl)pyridin-3-yl)-6-(2,6-difluoro-3-(2-methoxyethoxy)phenyl)-5-fluoropicolinamide], in that order: 32.3 nM, 0.13 nM, 2.93 nM and 201 nM.
